“And” between values parts separate entries of the source, which are not always exact repeats. Identical values can stand only once.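 Cells were grown in 96-well plates and exposed to each compound for 48 hours at five concentrations; endpoints were interpolated linearly between bracketing concentrations, or set to the highest concentration if not reached. GI50 marks 50% less growth. The concentration for full growth arrest is given as TGI.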
What was measured:
Assay in all cases: NCI-60 cell line screen, 48 h
SN12C renal = tested on: SN12C renal
EKVX NSCLC = tested on: EKVX NSCLC
HT29 colon = tested on: HT29 colon
IGROV1 ovarian = tested on: IGROV1 ovarian
SR leukemia = tested on: SR leukemia
ACHN renal = tested on: ACHN renal
M14 melanoma = tested on: M14 melanoma
SK-MEL-28 melanoma = tested on: SK-MEL-28 melanoma

Row | Structure (SMILES) | TGI (SN12C renal) | TGI (EKVX NSCLC) | TGI (HT29 colon) [µM] | TGI (IGROV1 ovarian) [µM] | TGI (SR leukemia) [µM] | TGI (ACHN renal) [µM] | TGI (M14 melanoma) [µM] | TGI (SK-MEL-28 melanoma) [µM] | GI50 (EKVX NSCLC) [nM]
1 | COc1ccc(N2C(=O)C3c4[nH]c5ccc(C)cc5c4C4CCC(C)CC4C3C2=O)cc1 (stereo not drawn) | > 100 µM | > 100 µM | > 100 | > 100 | > 100 | > 100 | > 100 | – | –
2 | COc1ccc(NC(=O)CC(=O)N2N=C(C)C(N=Nc3ccc(S(=O)(=O)c4ccc(N=NC5C(=O)N(C(=O)CC(=O)Nc6ccc(OC)cc6)N=C5C)cc4)cc3)C2=O)cc1 (stereo not drawn) | > 100 µM | > 100 µM | > 100 | > 100 | > 100 | > 100 | > 100 | > 100 | –
3 | CCCC(=O)NC1=C(NCC)C(=O)c2ccccc2C1=O | > 100 µM | – | > 100 | > 100 | > 100 | > 100 | – | > 100 | –
4 | COCn1c2ccc(OC(C)=O)cc2c2c(=O)oc(N(C)C)nc21 | > 100 µM | > 100 µM | > 100 | > 100 | > 100 | > 100 | > 100 | > 100 | –
5 | COc1cc2cc(C(=O)N3CC(CCl)c4ccc(O)cc43)[nH]c2c(OC)c1OC (stereo not drawn) | 0.148 µM and 0.104 µM | 0.35 µM and 0.749 µM | 0.0107 | – | > 100 | 0.000211 | 0.12 | 0.00601 | 285
6 | [N-]=[N+]=Nc1c(-c2ccccc2)c(Cl)nc2ccccc12 | > 100 µM | > 100 µM | 52.5 | > 100 | > 100 | > 100 | > 100 | > 100 | –
7 | C1=NCCNCCN=Cc2ccc(cc2)OCc2cccc(n2)COc2ccc1cc2 | > 100 µM | > 100 µM | > 100 | > 100 | > 100 | 68.7 | > 100 | > 100 | –
8 | CC1CC[C@@H](C(C)C)[C@H](Oc2nnc(C3OC(CO)C(O)C3O)o2)C1 (stereo partly drawn) | > 100 µM | > 100 µM | > 100 | – | – | > 100 | – | – | –
9 | C=Cc1c(C)c(OC)cc2c1Oc1ccc(OC)c(C)c1CC2 | > 100 µM | > 100 µM | > 100 | > 100 | > 100 | > 100 | > 100 | > 100 | –
10 | Cc1c(/C=N/NC(=S)Nc2ccccc2Cl)c(=O)n(-c2ccccc2)n1C | > 100 µM | > 100 µM | > 100 | > 100 | > 100 | – | > 100 | > 100 | –
11 | O=C(NCc1cccnc1)NCc1cccnc1 | > 100 µM | > 100 µM | > 100 | > 100 | > 100 | > 100 | > 100 | > 100 | –
12 | O=C(O[C@H]1[C@@H](O)[C@H](n2cnc3c(Cl)ncnc32)O[C@@H]1COC(c1ccccc1)(c1ccccc1)c1ccccc1)c1ccccc1 | 30.6 µM | 32.3 µM | 62.1 | > 100 | 18.6 | 31 | > 100 | > 100 | –
13 | Cc1ccccc1N=Nc1ccc(N=Nc2c(O)ccc3ccccc23)c(C)c1 | > 100 µM | > 100 µM | > 100 | > 100 | – | > 100 | > 100 | > 100 | –
14 | CC(=O)OCC(OC(C)=O)C(OC(C)=O)C(C=NN(C(C)=O)S(=O)(=O)c1ccc(/C=C2\NC(=O)NC2=O)cc1)OC(C)=O (stereo not drawn) | > 100 µM | > 100 µM | > 100 | > 100 | > 100 | > 100 | > 100 | – | –
15 | N#CC(C#N)=Cc1ccc2c(c1)OC(Cl)O2 (stereo not drawn) | 51.2 µM | 79.5 µM | 44.9 | – | – | 36 | 55.7 | 36.9 | –
16 | Cc1ccc(/C=N/Nc2cnccn2)s1 | > 100 µM | > 100 µM | > 100 | > 100 | – | > 100 | > 100 | > 100 | –
17 | O=c1oc2ccccc2c2c(=O)c3ccc(OC/C(=N/O)c4ccc(Cl)cc4)cc3oc12 | 51.2 µM | – | – | > 100 | 8.27 | 19.2 | 34 | – | –
18 | COc1ccc(-c2c(N)n(-c3nc4ccccc4s3)c(=O)c3cc([N+](=O)[O-])ccc23)cc1 | – | 44.6 µM | > 100 | – | > 100 | 69.9 | 47.6 | > 100 | –
19 | C/C(=N\Nc1nc2ccccc2s1)c1ncccn1 | 25.2 µM | 4.54 µM | – | 0.923 | 8.7 | 0.177 | – | > 100 | –
20 | O=C1C2CC=CCC2C(=O)N1n1c(-c2ccccc2)n[nH]c1=O (stereo not drawn) | > 100 µM | > 100 µM | > 100 | > 100 | > 100 | > 100 | > 100 | – | –
21 | NC(N)=N/N=C/c1c(-c2ccccc2)nc2n1ccc1nc(-c3ccccc3)c(/C=N/N=C(N)N)n12 | > 100 µM | 65.7 µM | > 100 | 92.7 | – | > 100 | > 100 | > 100 | –
22 | COc1ccc(NS(=O)CCCc2ccccc2)cc1 (stereo not drawn) | > 100 µM | > 100 µM | > 100 | > 100 | > 100 | > 100 | – | > 100 | –
23 | O=c1oc2ccccc2cc1/C=N/N1C(=S)N(c2ccccc2)C(=Nc2ccccc2)C1=Nc1ccccc1 | > 100 µM | > 100 µM | – | > 100 | > 100 | > 100 | > 100 | > 100 | –
24 | Cc1n[nH]c(=O)c2cc(-c3ccccc3)[nH]c12 | > 100 µM | > 100 µM | > 100 | > 100 | > 100 | > 100 | > 100 | – | –
25 | CCOC(=O)c1sc2c(c1OC(=O)c1cccs1)c(=O)n(-c1ccccc1)c(=S)n2-c1ccccc1 | 42 µM | 79.5 µM | 17.2 | 28 | – | 37.6 | 33.4 | 35.4 | –
26 | CC(C)[C@@H]1NC(=O)[C@H]2N=C(O[C@@H]2C)[C@@H]2CCCN2C(=O)[C@H](Cc2ccccc2)NC(=O)[C@@H]2CSC(=N2)[C@@H](Cc2ccccc2)NC(=O)[C@@H]2CSC1=N2 | > 50 µM | > 50 µM | > 50 | > 50 | – | > 50 | > 50 | > 50 | –
27 | O=C(Cn1c2c(c3ccccc31)CCCC2)NC1CCCCC1 | > 100 µM | > 100 µM | > 100 | > 100 | – | > 100 | > 100 | > 100 | –
